{
  "source": "paper PMC5073354",
  "about": "“Direct and indirect mechanisms of KLK4 inhibition revealed by structure and dynamics” (Scientific Reports, 2016)",
  "origin": "cited, not measured here",
  "key": {"[1]": {"system": "KLK4", "from_the_text": "Since the trypsin-SFTI-1 and matriptase-SFTI-1 protease/inhibitor complexes have been characterized by X-ray crystallography, a structural context is available to dissect relative potencies. […] To examine the interaction between KLK4 and inhibitor we determined the X-ray crystal structure of a KLK4-SFTI-1 complex to 1.0 Å resolution. The inhibitor structure is well-resolved except for missing density in the backbone of Pro13 and the side chain of Asp14. The contact β-sheet of SFTI-1 has multiple interactions with the KLK4 active site, including the P1 Lys5 inserting into the S1 pocket of KLK4 (Fig. 1B). || When comparing the structure of SFTI-1 in the context of trypsin, matriptase and KLK4, differences in the interface correlate to the potency of inhibition. […] Comparison of the structures provides arguments to support this lowered inhibition. SFTI-1 has less buried surface area and fewer interactions with KLK4 than with either trypsin or matriptase (Table S1). SFTI-1 behaves as a Laskowski inhibitor, interacting with its targets following the classi ... || (+ 1 further places)"}, "[2]": {"system": "trypsin", "from_the_text": "(§1) Since the trypsin-SFTI-1 and matriptase-SFTI-1 protease/inhibitor complexes have been characterized by X-ray crystallography, a structural context is available to dissect relative potencies."}, "[3]": {"system": "matriptase", "from_the_text": "as §1"}, "[4]": {"system": "KLK4", "conditions": "ion binding to residues more than 20 Å from the active site", "from_the_text": "To gain more insight into this mode of inhibition, we crystallized KLK4 under identical conditions but in the absence of PABA inhibitor."}, "[5]": {"system": "Factor VIIa", "conditions": "FVIIa not bound to tissue factor", "from_the_text": "Kallikreins are proteases that perform catalysis in organs with high zinc concentrations. The KLK4 inactivation by nickel described in this work is also proposed to apply to zinc binding to the same […]/[…] site[23]. A molecular understanding of zinc-mediated inhibition of members of the kallikrein family is emerging with three types of inhibition seen[41]. […] This is proposed to inhibit activity by […][42]. Second, zinc binding to residues in loop IV (also known ..."}, "[6]": {"system": "KLK4", "conditions": "library of tetrapeptide pNA substrates with invariant P1 Arg", "from_the_text": "We previously tested the amidolytic activity of KLK4 against a focused library of synthetic tetrapeptide substrates with an invariant P1 Arg[13]. […] To investigate the structural basis for increased potency, we solved the crystal struct ..."}},
  "data": [
    {"molecule": "1GRCTKSIPPICFPD14 (bicyclic or more) [SFTI-1, sunflower trypsin inhibitor-1, 14 amino acid bicyclic peptide; backbone cyclization coupled with an intramolecular disulfide linkage]", "values": [
      {"measurement": "rank of potency, KLK4 versus trypsin and matriptase (in words)", "setting": "[1]; discrepancy in reported SFTI-1 inhibition constants (ref 12, 26, 27)", "result": "KLK4 is thought to be the least potently inhibited"},
      {"measurement": "inhibition of KLK4 (in words)", "setting": "[1]; proteolytic activity of KLK4", "result": "potently inhibits KLK4 proteolytic activity"},
      {"measurement": "inhibition of trypsin (in words)", "setting": "[2]", "result": "inhibit KLK4 in addition to trypsin and matriptase"},
      {"measurement": "inhibition of matriptase (in words)", "setting": "[3]", "result": "inhibit KLK4 in addition to trypsin and matriptase"}
    ]},
    {"molecule": "[Ni+2]", "note": "[Ni^2+, nickel]", "values": [
      {"measurement": "inhibition of KLK4 by metal (in words)", "setting": "[4]", "result": "KLK4 can be inhibited"}
    ]},
    {"molecule": "[Ca+2]", "note": "[calcium]", "values": [
      {"measurement": "reversal of zinc inhibition of FVIIa (in words)", "setting": "[5]; zinc-inhibited", "result": "can reverse this inhibition with calcium"}
    ]},
    {"molecule": "[Zn+2]", "note": "[zinc]", "values": [
      {"measurement": "inhibition of FVIIa by zinc (in words)", "setting": "[5]", "result": "is inhibited by zinc"}
    ]},
    {"molecule": "FVQR-p-nitroanilide [FVQR-p-nitroanilide (pNA)]", "values": [
      {"measurement": "amidolytic activity of KLK4 for substrate (in words)", "setting": "[6]", "result": "highest activity"}
    ]}
  ]
}
